ChEMBL document CHEMBL4831557, “Parthenolide Derivatives as PKM2 Activators Showing Potential in Colorectal Cancer” (J Med Chem, 2021)

Columns and labels:
[1] = system: HT-29; experiment: Cytotoxicity against human HT-29 cells assessed as reduction in cell viability incubated for 48 hrs by MTT assay; type: functional, cell-based; details: HT-29, 48 h
[2] = system: SW480; experiment: Cytotoxicity against human SW480 cells assessed as reduction in cell viability incubated for 48 hrs by MTT assay; type: functional, cell-based; details: SW480, 48 h
[3] = system: HCT-116; experiment: Cytotoxicity against human HCT-116 cells assessed as reduction in cell viability incubated for 48 hrs by MTT assay; type: functional, cell-based; details: HCT-116, 48 h
[4] = system: U2OS; experiment: Cytotoxicity against human U2OS cells assessed as reduction in cell viability incubated for 48 hrs by MTT assay; type: functional, cell-based
[5] = system: HepG2; experiment: Cytotoxicity against human HepG2 cells assessed as reduction in cell viability incubated for 48 hrs by MTT assay; type: functional, cell-based; details: HepG2, 48 h
[6] = system: MDA-MB-231; experiment: Cytotoxicity against human MDA-MB-231 cells assessed as reduction in cell viability incubated for 48 hrs by MTT assay; type: functional, cell-based; details: MDA-MB-231, 48 h
[7] = system: A549; experiment: cells; details: Homo sapiens, A549, 48 h

IC50 [7] [µM] | SMILES | IC50 [1] [µM] | IC50 [2] [µM] | IC50 [3] [µM] | IC50 [4] [µM] | IC50 [5] [µM] | IC50 [6] [µM]
60.1 | C/C1=C\CC[C@@]2(C)O[C@H]2[C@H]2OC(=O)C(CN3CCN(C(=O)c4ccc5ccccc5n4)CC3)[C@@H]2CC1 (stereo partly drawn) | 54.4 | 23.1 | 64.3 | 23.5 | 69.5 | 87
17.4 | C=C1C(=O)O[C@H]2[C@H]1CC/C(COC(=O)c1ccc3ncncc3c1)=C/CC[C@@]1(C)O[C@@H]21 | 5.82 | 1.9 | 6.19 | 13.9 | 11.8 | 9.01
> 100 | Cn1c2cc([S+](C)[O-])sc2c2cnn(Cc3cccc(N)c3)c(=O)c21 (stereo not drawn) | > 100 | 93 | 89.9 | > 100 | > 100 | > 100
1.75 | C=C1C(=O)O[C@H]2[C@H]1CC/C(COC(=O)c1ccc3nc(Cl)ccc3c1)=C/CC[C@@]1(C)O[C@@H]21 | 1.42 | 0.46 | 1.77 | 2.46 | 4.83 | 2.69
2.45 | C=C1C(=O)O[C@H]2[C@H]1CC/C(COC(=O)c1cnc3ccccc3c1)=C/CC[C@@]1(C)O[C@@H]21 | 2.43 | 0.33 | 2.7 | 2.58 | 9.53 | 2.27
28.6 | C=C1C(=O)O[C@H]2[C@H]1CC[C@]1(C)O[C@@H]1CC[C@@]1(C)O[C@@H]21 | 11.4 | 4.3 | 13.4 | 13 | 23.5 | 15.2
2.75 | CO[C@@]12[C@H](COC(N)=O)C3=C(C(=O)C(C)=C(N)C3=O)N1C[C@@H]1N[C@@H]12 [MITOMYCIN] | 0.44 | 0.79 | 0.55 | 8.45 | 2.27 | 2.89
9.68 | C=C1C(=O)O[C@H]2[C@H]1CC/C(C(=O)CN1CCCN(C(=O)c3ccc4ccccc4n3)CC1)=C/CC[C@@]1(C)O[C@@H]21 | 4.31 | 3.13 | 4.32 | 10.6 | 5 | 7.44
1.58 | C=C1C(=O)O[C@H]2[C@H]1C[C@H](OC(=O)c1ccc3ncccc3c1)C(C)=C1CC[C@@](C)(O)[C@@H]12 | 1.46 | 0.4 | 1.1 | 2.36 | 4.53 | 2.66
16.8 | C/C1=C\CC[C@@]2(C)O[C@H]2[C@H]2OC(=O)/C(=C\c3ccc4ncccc4c3)[C@@H]2CC1 | 6.66 | 2.71 | 6.55 | 2.78 | 23.6 | 12.5
2.45 | C=C1C(=O)O[C@H]2[C@H]1CC/C(COC(=O)c1ccc3cnccc3c1)=C/CC[C@@]1(C)O[C@@H]21 | 2.43 | 1.33 | 2.7 | 2.58 | 9.52 | 2.27
27.3 | C/C1=C\CC[C@@]2(C)O[C@H]2[C@H]2OC(=O)C(CN3CCCN(C(=O)c4ccc5ccccc5n4)CC3)[C@@H]2CC1 (stereo partly drawn) | 39 | 6.39 | 50 | 11.1 | 59.6 | 71.7
2.95 | C=C1C(=O)O[C@H]2[C@H]1CC/C(COC(=O)c1ccc3cccnc3c1)=C/CC[C@@]1(C)O[C@@H]21 | 2.8 | 0.33 | 3.13 | 1.3 | 9.84 | 1.75
3.49 | C=C1C(=O)O[C@H]2[C@H]1CC/C(COC(=O)c1ccc3ccccc3c1)=C/CC[C@@]1(C)O[C@@H]21 | 2.8 | 2.25 | 3.05 | 3.58 | 8.15 | 3.34
9.18 | C/C1=C\CC[C@@]2(C)O[C@H]2[C@H]2OC(=O)/C(=C\c3ccc4nccnc4c3)[C@@H]2CC1 | 358 | 3.51 | 4.38 | 3 | 13.8 | 7.59
33.5 | C/C1=C\CC[C@@]2(C)O[C@H]2[C@H]2OC(=O)/C(=C\c3ccc4nc[nH]c(=O)c4c3)[C@@H]2CC1 | 28.6 | 34 | 32.9 | 24.6 | 86.7 | 55.1
2.2 | C=C1C(=O)O[C@H]2[C@H]1CC/C(COC(=O)c1ccc3nccnc3c1)=C/CC[C@@]1(C)O[C@@H]21 | 2.52 | 1.25 | 2.82 | 3.18 | 6.84 | 2.97
0.92 | C=C1C(=O)O[C@H]2[C@H]1CC/C(COC(=O)c1ccc3ncc(Br)cc3c1)=C/CC[C@@]1(C)O[C@@H]21 | 0.79 | 0.38 | 1.21 | 2.51 | 4.5 | 1.89
2.29 | C=C1C(=O)O[C@H]2[C@H]1CC/C(COC(=O)c1cnnc3ccccc13)=C/CC[C@@]1(C)O[C@@H]21 | 4.27 | 1.33 | 3.78 | 4.01 | 12.5 | 3.68
8.12 | C=C1C(=O)O[C@H]2[C@H]1CC/C(COC(=O)CCc1nc3ccccc3[nH]c1=O)=C/CC[C@@]1(C)O[C@@H]21 | 5.66 | 1.74 | 6.13 | 6.99 | 14.2 | 7.56
13.5 | C=C1C(=O)O[C@H]2[C@H]1CC/C(COC(=O)CCc1n[nH]c(=O)c3ccccc13)=C/CC[C@@]1(C)O[C@@H]21 | 4.11 | 1.45 | 4.51 | 6.03 | 7.22 | 7.92
6.69 | C=C1C(=O)O[C@H]2[C@H]1CC[C@@]1(COC(=O)c3ccc4ncccc4c3)O[C@@H]1CC[C@@]1(C)O[C@@H]21 | 0.94 | 2.4 | 1.8 | 6.43 | 7.13 | 6.61
8.63 | C=C1C(=O)O[C@H]2[C@H]1CC/C(COC(=O)CCn1cnc3ccccc3c1=O)=C/CC[C@@]1(C)O[C@@H]21 | 5.21 | 3.23 | 5.71 | 7.76 | 17.9 | 8.37
2.95 | C=C1C(=O)O[C@H]2[C@H]1CC/C(COC(=O)c1ccc3ccccc3n1)=C/CC[C@@]1(C)O[C@@H]21 | 2.68 | 1.2 | 2.97 | 2.22 | 8.84 | 2.14
